≈ marks a conversion by molar mass, not a printed value. Entries after “also recorded” stand apart in the source; their conditions may differ. Structures can show the parent of a compound that is named as a salt. Where two headings read alike, the source gives them in different places.
What was measured:
Assay type in all cases: physicochemical
[1] = Comparative stability at 40 °C and 75% RH at open conditions (UPLC/UV and XRPD); conditions: 40 °C/75% RH open; for % area main peak (LC/UV): 0 days
Description: In a second experiment, approximately 100 mg of compound A mesylate salt Form 2 according to Example 2, free base Form A according to Example 1 and esylate salt Form 1 according to Example 6 were stored in three open amber glass vials covered with filter paper to simulate open conditions. The samples were stored in a stability chamber at 75% RH and 40 °C to compare their stability. At the time points 0, 28, 56, 84 days the corresponding samples were removed from the stability chambers. After conditioning at RT, the samples were analyzed by UPLC/UV and XRPD.

[2] = Dissolution in simulated oral fluids (FaSSGF, FaSSIF, FeSSIF), DISS Profiler, 37 °C, 24 hours; conditions: for Maximum solubility: 1440 min
Description: The dissolution of mesylate salt Form 2 of the compound A in comparison with the free base Form A of compound A was tested in all simulated oral fluids. The experiments were conducted with DISS Profiler 6 Channel Pion. The experiments were conducted until 24 hours at 37 °C.
The mediums used, namely FaSSGF (Fasted State Simulated Gastric Fluid), FaSSIF (Fasted State Simulated Intestinal Fluid) and FeSSIF (Fed State Simulated Intestinal Fluid) were obtained from Biorelevant.com Ltd. The medium compositions are listed in table 9. The saturated solution concentrations were about 14-15 mg/ml (as free base) in FaSSGF and about 3-4 mg/ml (as free base) in FaSSIF and FeSSIF.

[3] = Formulations with polymer: drug content and appearance; conditions: for Found conc.: nominal 40 mg/ml
Excerpt: The formulation having a 0.05 M citrate buffer concentration was chosen to be tested with the addition of polymers to investigate the effect due to a potential viscosity increase.
Different percentage of polymers were used, e.g. 5% w/v of polyvinylpyrrolidone (PVP) 40 or 1% w/v HPMC.
The formulations were studied with or without the use of the surfactant D-α-tocopherol polyethylene glycol succinate (Vit. E TPGS, Sigma Aldrich; CAS: 9002-96-4) in 0.05 M citrate buffer at pH 2.5 at the nominal concentration of 40 mg/ml. To prepare the vehicle the proper amount of citric acid was dissolved in water in a volumetric flask, then the pH was increased up to 2.5 using 0.1 M NaOH. Then water was added and brought to the final volume. The polymers PVP 40 (Sigma Aldrich; CAS: 9003-39-8) or HPMC (viscosity 46-60 cP; Sigma Aldrich; CAS: 9004-65-3) were gently dissolved in citrate buffer and left under magnetic stirring for at least 1 hour to their complete hydration. When required, Vit. E TPGS was subsequently added to the media and gently left under magnetic stirring to avoid bubbles formation.
The required volume of vehicle was added to a known amount of Compound A free base Form A or Mesylate salt Form 2, then sonicated at RT for at least 10 min. The formulation was kept under magnetic stirring for at least 10 min before analysis.

[4] = Stability of mesylate salt Form 2 on storage (UPLC/UV/MS and XRPD), open and closed conditions; conditions: for Stability: one year; for XRPD pattern change: open and closed; for % area main peak: 0 days; for Stability (overall): regular and stressed storage conditions
Description: The samples were dissolved in solvent (water/ACN 40/60) at about 1 mg/mL and diluted at about 0.07 mg/mL.
Approximately 120 mg of mesylate salt Form 2 of Compound A according to Example 2 was stored in a properly labelled open amber glass vial covered with filter paper to simulate open conditions, and in a screw cap glass to simulate closed conditions. The samples were prepared such that a layer of powder was uniformly spread on the bottom of the vial. Approximately 70 mg of powder were weighed in hydroxypropyl methylcellulose (HPMC) capsules size 3 (Capsugel) and for each condition two capsules were stored. The samples were placed at RT in a desiccator with NaBr to reach about 60% RH and in a stability chamber to reach 75% RH at 40 °C. The stability of the mesylate salt Form 2 of Compound A was thereby tested in four distinct conditions: open condition at 25 °C/60% RH, closed condition at 25 °C/60% RH, open condition at 40 °C/75% RH, and closed condition at 40 °C/75% RH. At the time points 0, 14, 28, 56, 84, 168 and 365 days the corresponding samples were removed from the stability chambers. After conditioning at RT, the samples were analyzed by UPLC/UV/MS and XRPD. One or two extra samples were stored for every condition.

[5] = 1% w/v HPMC, 1% w/v Vit. E TPGS, 0.05 M citrate buffer pH 2.5
[6] = 5% w/v PVP, 1% w/v Vit. E TPGS, 0.05 M citrate buffer pH 2.5
[7] = 5% w/v PVP, 0.05 M citrate buffer pH 2.5

Compound: COc1cc(-c2ccc(F)cn2)cc2c(N[C@H](C)c3noc(C)n3)ncnc12 [free base Form A, (R)-6-(5-fluoropyridin-2-yl)-8-methoxy-N-(1-(5-methyl-1,2,4-oxadiazol-3-yl)ethyl)quinazolin-4-amine]
- % area main peak (LC/UV) [1]: 99.8 % area
- pH at the end of the experiment ([2]; FaSSGF): 3.1
- Time to decrease of solubility / duration of sustained solubility ([2]; FaSSGF, 37 °C): approximately 3 hours
- Dissolution behaviour ([2]; FaSSGF, 37 °C, 24 hours): steady increase of solubility, but not complete solubilisation
- pH at the end of the experiment ([2]; FaSSIF): 6.4
- Maximum solubility ([2]; FaSSIF, 37 °C, 24 hours): 0.04 mg/mL
- pH at the end of the experiment ([2]; FeSSIF): 5.1
- solubility at 24 h ([2]; fassgf, 37 °C, 24 hours, read-out: Maximum solubility): ~11000 µg/mL (≈ 28.9 mM)
- solubility at 24 h ([2]; fessif, 37 °C, 24 hours, read-out: Maximum solubility): 100 µg/mL (≈ 0.263 mM)
- Appearance [3, 5]: Suspension
- Mean recovery [3, 5]: 104.9%
- Found conc. [3, 5]: 41.96 mg/mL
- Appearance [3, 6]: Suspension
- Mean recovery [3, 6]: 111.18%
- Found conc. [3, 6]: 44.47 mg/mL
- Appearance [3, 7]: Suspension
- Mean recovery [3, 7]: 100.3%
- Found conc. [3, 7]: 40.12 mg/mL
- Appearance ([3]; all formulations with polymer): suspensions

Compound: COc1cc(-c2ccc(F)cn2)cc2c(N[C@H](C)c3noc(C)n3)ncnc12 [mesylate salt Form 2, (R)-6-(5-fluoropyridin-2-yl)-8-methoxy-N-(1-(5-methyl-1,2,4-oxadiazol-3-yl)ethyl)quinazolin-4-amine]
- Stability ([1]; 84 days): surprisingly good stability during stressed storage
- % area main peak (LC/UV) [1]: 99.9 % area
- pH at the end of the experiment ([2]; FaSSGF): 1.8
- Time to decrease of solubility / duration of sustained solubility ([2]; FaSSGF, 37 °C): at least 24 hours
- Dissolution behaviour ([2]; FaSSGF, 37 °C, 24 hours): complete solubilisation was achieved; also recorded: no decrease in the solubility during the 24 hours
- Maximum solubility ([2]; FaSSGF, 37 °C, 24 hours): 14.00 mg/mL
- pH at the end of the experiment ([2]; FaSSIF): 6.1
- Maximum solubility ([2]; FaSSIF, 37 °C, 24 hours): 0.10 mg/mL
- pH at the end of the experiment ([2]; FeSSIF): 5.0
- Maximum solubility ([2]; FeSSIF, 37 °C, 24 hours): 0.07 mg/mL
- solubility at 24 h ([2]; fassif, read-out: Solubility by UPLC/UV/MS at the end of the experiment): 30 µg/mL
- solubility at 24 h ([2]; fessif, read-out: Solubility by UPLC/UV/MS at the end of the experiment): 170 µg/mL
- Stability ([4]; 25 °C/60% RH closed): remained stable throughout the entire test period
- Stability ([4]; 25 °C/60% RH open): remained stable throughout the entire test period
- XRPD pattern change ([4]; 25 °C/60% RH): no significant changes
- Stability ([4]; 40 °C/75% RH closed): remained stable throughout the entire test period
- Stability ([4]; 40 °C/75% RH open): remained stable throughout the entire test period
- XRPD pattern change ([4]; 40 °C/75% RH): no significant changes
- % area main peak ([4]; ES+, 25 °C/60% RH closed): 91.6 % area
- % area main peak ([4]; ES+, 25 °C/60% RH open): 91.6 % area
- % area main peak ([4]; ES+, 40 °C/75% RH closed): 91.6 % area
- % area main peak ([4]; ES+, 40 °C/75% RH open): 91.6 % area
- % area main peak ([4]; ES−, 25 °C/60% RH closed): 100.0 % area
- % area main peak ([4]; ES−, 25 °C/60% RH open): 100.0 % area
- % area main peak ([4]; ES−, 40 °C/75% RH closed): 100.0 % area
- % area main peak ([4]; ES−, 40 °C/75% RH open): 100.0 % area
- % area main peak ([4]; UV, 25 °C/60% RH closed): 98.4 % area
- % area main peak ([4]; UV, 25 °C/60% RH open): 98.4 % area
- % area main peak ([4]; UV, 40 °C/75% RH closed): 98.4 % area
- % area main peak ([4]; UV, 40 °C/75% RH open): 98.4 % area
- Stability (overall) [4]: excellent stability for at least one year at RT; also recorded: remains stable in dry form for at least one year at different conditions
- Stability (overall) ([4]; listed as mesylate salt): stable for several months
- Appearance [3, 5]: Solution
- Mean recovery [3, 5]: 111.10%
- Found conc. [3, 5]: 44.44 mg/mL
- Appearance [3, 6]: Solution
- Mean recovery [3, 6]: 112.20%
- Found conc. [3, 6]: 44.87 mg/mL
- Appearance [3, 7]: Solution
- Mean recovery [3, 7]: 116.30%
- Found conc. [3, 7]: 46.51 mg/mL
- Formulability in solution compared to free base Form A ([3]; with polymers, all excipients considered): better formulability in solution

From US20260356826A1, “SALTS OF AMINO QUINAZOLINE DERIVATIVES” (CHIESI FARMACEUTICI S.P.A., priority 2023, published 2026)
